Results published in US12521450B2, “DNA, expression vector, transcript, cell, pharmaceutical composition, and medicine” (Hitachi, Ltd., priority 2021, dated 2026).

System: SF3B1 K700E mutant cell derived from the HEK293FT cells
Experiment: GCV-concentration-dependent cell death, MTT assay, lentiviral HSV-TK (BRD9 intron) in genome-edited cells
Format: cell-based
Settings: SF3B1 K700E mutant cell (one allele) vs SF3B1 normal cell; GCV 100 to 0.16 μg/mL, 48 hours; FIG. 7
Method: In this example, in order to verify the toxicity of a suicide gene in a cell having an SF3B1 K700E mutation in one allele in a genome, as in actual cancer cells, HEK293FT cells were genome-edited and an SF3B1 K700E mutant cell strain was established.
Meanwhile, an HSV-TK expression lentiviral vector containing the BRD9 intron was prepared using the pHR vector shown in SEQ ID NO: 11 (FIGS. 3A and 3B). The lentiviral vector was introduced into the SF3B1 K700E mutant strain and an SF3B1 normal strain as a control, and the number of cells killed by the addition of GCV was quantified using the MTT assay method. A detailed procedure will be shown below. […]
The solubilized solution of the MTT cell number measuring kit (Nacalai Tesque Inc.) was added into the HEK293FT cells at 100 μL/well, and the mixture was incubated at 37° C. After 20 hours, the absorbance at 570 nm (reference wavelength: 655 nm) was measured with the microplate reader.
The number of viable cells was calculated based on a standard curve using the above-mentioned serially diluted HEK293FT cells, and the viability was shown as a ratio when the number of cells in the GCV-free group was 100%. Further, the efficacy was evaluated by comparing the cytotoxicity due to GCV addition in the SF3B1 normal cell with the cytotoxicity of the SF3B1 K700E mutant cell. […]

suicide gene containing the BRD9 intron: SFFV promoter, HSV-TK inserted with an intron of BRD9 containing no normal acceptor sequence, puromycin resistance gene linked by P2A
viability (ratio when the number of cells in the GCV-free group was 100%): viability lower than that of the SF3B1 normal cell
